# Data published in US20260048075A1, “Inhibition of TCF4/ITF2 in the Treatment of Cancer” (VIB VZW, priority 2022, published 2026).
# Where two headings read alike, the source gives them in different places.
# Assays:
# MM029 cells = experiment: Proliferation assay (IncuCyte cell confluency); format: cell-based, human; details: ARV-771 300 nM with dabrafenib 50 nM, trametinib 10 nM, FIG. 9
# Protocol: Roughly 400 MM029 cells per well were plated in a 96-well plate and treated with ARV-771 300 nM and/or Dabrafenib 50 nM+Trametinib 10 nM after 24 hours. Cells were imaged using the IncuCyte ZOOM System (Essen Bioscience) and automated cell confluency measurements were made using images taken at 2 hour intervals, for the duration of the experiments. Five technical replicates were averaged and statistical significance was assessed (paired, two-tailed Student's t-test).
# TCF4 [1] = experiment: RT-qPCR of TCF4 expression after ARV-771; format: cell-based, human; details: MM057 cells; collected 48 hours after plating
# Protocol: MM057 cells were plated and treated with the specified dose of ARV-771, as described above 48 hours after plating, cells were collected, resuspended in RA1 lysis buffer using the RNA NucleoSpin extraction kit (Macherey&Nagel) and processed according to manufacturer's instructions. RNA was quantified using a ThermoScientific NanoDrop 1000 and 500 to 2000 ng was reverse transcribed with a High-Capacity cDNA Reverse Transcription Kit (Life Technologies). qPCRs were run using the SensiFAST probe No-ROX kit (Bioline, Cat #BIO-86005) on a Roche Life Science LightCycler 384. Data processing with Biogazelle Qbase+3.1 software relied on normalization with a minimum of two reference genes.
# TCF4 locus = experiment: OmniATAC-seq chromatin accessibility; format: cell-based, human; details: MM057 cells; ARV-771 100 nM
# Protocol: Approximately […] MM057 cells were plated in a 6-well plate and treated with ARV-771 100 nM after 24 hours. Forty eight hours after plating, cells were collected. Nuclei of 50,000 cells were isolated and an Omni-assay for transposase-accessible chromatin using sequencing (OmniATAC-seq) was performed as described previously (Corces et al. 2017, Nat Methods 14:959-962). After final amplification, samples were cleaned up with MinElute (QIAGEN) and libraries were prepared using the KAPA Library Quantification Kit (supplier). Samples were sequenced on an IlluminaNextSeq 500 High Output chip. Briefly, reads were mapped to human genome (GRCh37) using STAR (2.7.1a-foss-2018a). Resulting BAMfiles were cleaned for duplicates using Picard (2.21.8-Java-1.8.0) and indexed. Mitochondrial reads were removed using SAMtools (1.9-20190828-foss-2018a) and BigWig files were created (deepTools/3.3.1-foss-2018a-Python-3.7.4). ATAC-seq peaks were identified and visualized using MACS2 peak calling (2.1.2.1-foss-2018a-Python-2.7.16) with […] BAMPE parameters. Finally, BED files were created from broadPeak files using BEDTools (2.28.0-foss-2018a).
# melanoma MES cells = experiment: Bulk RNA sequencing after ARV-771 exposure; format: cell-based, human; details: 50 nM ARV-771; for antigen presentation program expression: melanoma MES cells
# Protocol: Approximately 2*10^5 cells were plated in a 6-well plate. For knockdown experiments, these were transfected with the described siRNA pool 24 and 72 hours after plating and collected 24 hours after the second transfection. For inducible TCF4 experiments, cells were treated with 2 ng/ml doxycycline (Sigma-Aldrich, Cat #D9891) every 48 hours and collected 96 hours after plating. For ARV-771 experiments, cells were treated with 50 nM ARV-771 (Bioconnect, Cat #HY-100972) 24 hours after plating and collected 96 hours after plating. RNA was extracted using the RNA NucleoSpin extraction kit (Macherey&Nagel) according to the manufacturer's instructions.
# The RNA integrity was monitored using Bioanalyzer analysis. 5 ng of RNA per sample was reverse-transcribed and amplified using a modified version of the SMARTseq2 protocol, previously described in Rambow et al. 2018 (Cell 174:843-855.e19). Prior to generating sequencing libraries using the NexteraXT kit (Illumina, Cat #FC-131-10), cDNA profiles were monitored using the Bioanalyzer. Sequencing was performed on a Illumina Nextseq500 platform. Differential gene expression analyses were executed using the DeSeq2 pipeline.
# TCF4 [2] = details: B cell lymphoma and BPDCN; Jain et al. 2019, Ceribelli et al. 2016; cited from earlier work
smiles,measurement,setting,value
Cc1ncsc1-c1ccc([C@H](C)NC(=O)[C@@H]2C[C@@H](O)CN2C(=O)[C@@H](NC(=O)COCCCOCCNC(=O)C[C@@H]2N=C(c3ccc(Cl)cc3)c3c(sc(C)c3C)-n3c(C)nnc32)C(C)(C)C)cc1 [ARV-771],sensitivity to BRAF- and MEK-inhibition (cell growth),MM029 cells,increased sensitivity to BRAF- and MEK-inhibition
same,TCF4 expression,TCF4 [1],dose-dependent decrease in TCF4 expression
same,chromatin accessibility upstream of the TCF4 locus,TCF4 locus,decreased chromatin accessibility upstream of the TCF4 locus
same,expression of genes from the MES signature,melanoma MES cells,strongly downregulated
same,expression of genes from the MITF-dependent MEL signature,melanoma MES cells,upregulated
same,transcriptional changes compared with TCF4 silencing,melanoma MES cells,recapitulated most of the transcriptional changes observed upon TCF4 silencing
same,antigen presentation program expression,melanoma MES cells,upregulated
same,antigen presentation program expression,melanoma MES cells; listed as ARV-711,unleashes the expression of antigen presentation machinery and HLA-genes
same,overall transcriptional reprogramming effect upon BET-inhibition,melanoma MES cells; mesenchymal-like vs melanocytic cell lines,far more drastic in mesenchymal-like than in melanocytic cell lines
same,TCF4 expression,TCF4 [2],decrease its expression
